From patent publication US9796711B2, “Substituted pyrazolo[3,4-b]pyridin-6-carboxylic acids and method of use” (AbbVie S.àr.l., priority 2015, dated 2017)

Tests used:
ΔF508-CFTR [1] = molecular target: T1, ΔF508-CFTR (Homo sapiens, UniProt P13569, DEL508-508); test: CFTR cell surface levels using HRP-tagged ΔF508-CFTR expressing CFBE cells, intrinsic corrector capacity; format: cell-based
T1 construct: host or cells: CFBE41o-, doxycycline-inducible
Outline: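 Here the cells express ΔF508-CFTR with horseradish peroxidase inserted in extracellular loop 4, so only rescued channel at the surface gives luminescent signal. Compounds act on their own, 20 h at the reduced temperature of 33 °C; values are percent activity relative to DMSO and a 3 μM corrector.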

ΔF508-CFTR [2] = molecular target: T1, ΔF508-CFTR; test: CFTR cell surface levels using HRP-tagged ΔF508-CFTR expressing CFBE cells, in the presence of a co-corrector; format: cell-based
Outline: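 Cells were seeded with 0.5 μg/mL doxycycline and held 68 h at 37 °C. Test compounds plus 3 μM co-corrector (final 0.1% DMSO) were then added for 20 h at 33 °C. Washed cells received HRP substrate, and luminescence was normalized between DMSO and 3 μM co-corrector controls.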

[3] = HRP-tagged ΔF508-CFTR expressing CFBE cells, intrinsic corrector capacity (no co-corrector), 33° C., 20 hours
[4] = HRP-tagged ΔF508-CFTR expressing CFBE cells, intrinsic corrector capacity (no co-corrector), 33° C., 20 hours, read-out: EC50
[5] = HRP-tagged ΔF508-CFTR expressing CFBE cells, in the presence of 3 μM co-corrector
[6] = HRP-tagged ΔF508-CFTR expressing CFBE cells, in the presence of 3 μM co-corrector, read-out: EC50

T1 sequence (P13569 with tags, fused parts or gaps DEL508-508): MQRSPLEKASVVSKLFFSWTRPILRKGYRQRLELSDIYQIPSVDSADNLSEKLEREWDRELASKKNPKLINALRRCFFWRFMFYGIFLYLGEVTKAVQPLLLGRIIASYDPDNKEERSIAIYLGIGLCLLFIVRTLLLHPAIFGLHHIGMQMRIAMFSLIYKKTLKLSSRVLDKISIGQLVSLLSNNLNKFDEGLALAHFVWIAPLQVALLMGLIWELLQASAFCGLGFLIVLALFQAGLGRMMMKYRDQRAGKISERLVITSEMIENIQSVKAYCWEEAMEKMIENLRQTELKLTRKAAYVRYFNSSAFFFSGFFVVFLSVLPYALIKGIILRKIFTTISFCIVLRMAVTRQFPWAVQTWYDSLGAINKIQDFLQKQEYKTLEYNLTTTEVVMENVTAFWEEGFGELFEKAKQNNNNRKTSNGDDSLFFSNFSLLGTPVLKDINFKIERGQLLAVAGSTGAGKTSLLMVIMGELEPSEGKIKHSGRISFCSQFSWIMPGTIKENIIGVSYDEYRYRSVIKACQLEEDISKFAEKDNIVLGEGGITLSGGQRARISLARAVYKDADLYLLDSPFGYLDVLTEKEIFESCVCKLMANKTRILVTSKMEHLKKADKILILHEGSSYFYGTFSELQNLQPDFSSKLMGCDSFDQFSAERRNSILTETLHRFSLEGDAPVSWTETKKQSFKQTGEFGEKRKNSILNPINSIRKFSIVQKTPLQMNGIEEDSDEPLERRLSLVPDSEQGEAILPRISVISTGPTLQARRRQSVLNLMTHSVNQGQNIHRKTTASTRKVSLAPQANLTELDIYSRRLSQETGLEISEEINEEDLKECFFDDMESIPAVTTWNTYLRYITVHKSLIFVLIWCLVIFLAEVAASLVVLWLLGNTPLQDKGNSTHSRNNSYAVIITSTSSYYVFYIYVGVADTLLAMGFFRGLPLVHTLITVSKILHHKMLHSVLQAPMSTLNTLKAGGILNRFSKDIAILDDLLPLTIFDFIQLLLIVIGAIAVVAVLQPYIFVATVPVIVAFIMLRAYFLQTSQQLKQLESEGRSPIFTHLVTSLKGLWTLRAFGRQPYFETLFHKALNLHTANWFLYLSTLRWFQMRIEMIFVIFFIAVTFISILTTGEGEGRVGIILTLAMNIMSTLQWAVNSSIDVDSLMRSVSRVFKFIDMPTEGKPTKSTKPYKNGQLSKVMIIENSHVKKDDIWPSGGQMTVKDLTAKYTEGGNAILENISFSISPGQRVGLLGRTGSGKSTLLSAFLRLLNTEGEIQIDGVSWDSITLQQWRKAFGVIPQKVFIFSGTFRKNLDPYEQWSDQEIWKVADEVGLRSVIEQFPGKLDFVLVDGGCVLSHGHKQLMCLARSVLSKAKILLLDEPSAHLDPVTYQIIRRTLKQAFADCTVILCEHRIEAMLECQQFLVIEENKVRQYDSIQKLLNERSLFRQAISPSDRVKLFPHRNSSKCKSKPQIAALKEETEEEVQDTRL

SMILES | % Activation (ΔF508-CFTR [1]; [3]) | EC50 (ΔF508-CFTR [1]; [4]) | % Activation (ΔF508-CFTR [2]; [5]) | EC50 (ΔF508-CFTR [2]; [6]) | EC50 (ΔF508-CFTR [1]) | EC50 (ΔF508-CFTR [2])
CC(C)c1nn(-c2ccc(F)cc2)c2nc(C(=O)O)cc(N3CCC(CCN4CCN(C)CC4)CC3)c12 [compound 785, 1-(4-fluorophenyl)-4-{4-[2-(4-methylpiperazin-1-yl)ethyl]piperidin-1-yl}-3-(propan-2-yl)-1H-pyrazolo[3,4-b]pyridine-6-carboxylic acid] | 264.9% | 622 nM | 482.8% | 558 nM |  | 
CC(C)c1nn(-c2ccc(F)cc2)c2nc(C(=O)O)cc(N3CC[C@@H](N4CCCCC4)C3)c12 [compound 786, 1-(4-fluorophenyl)-4-[(3R)-3-(piperidin-1-yl)pyrrolidin-1-yl]-3-(propan-2-yl)-1H-pyrazolo[3,4-b]pyridine-6-carboxylic acid] | 67.03% | 1160 nM | 221.6% | 907 nM |  | 
CCN(CC)C1CCN(c2cc(C(=O)O)nc3c2c(C(C)C)nn3-c2ccc(F)cc2)CC1 [compound 787, 4-[4-(diethylamino)piperidin-1-yl]-1-(4-fluorophenyl)-3-(propan-2-yl)-1H-pyrazolo[3,4-b]pyridine-6-carboxylic acid] | 121.5% | 771 nM | 309.9% | 1300 nM |  | 
CC(C)c1nn(-c2ccc(F)cc2)c2nc(C(=O)O)cc(N3CCN(C(C)(C)C)CC3)c12 [compound 788, 4-(4-tert-butylpiperazin-1-yl)-1-(4-fluorophenyl)-3-(propan-2-yl)-1H-pyrazolo[3,4-b]pyridine-6-carboxylic acid] | 115.7% | 1670 nM | 329.4% | 1670 nM |  | 
CC(C)c1nn(-c2ccc(F)cc2)c2nc(C(=O)O)cc(N3CCN(CC4CCCN(C)C4)CC3)c12 (stereo not shown) [compound 791, 1-(4-fluorophenyl)-4-{4-[(1-methylpiperidin-3-yl)methyl]piperazin-1-yl}-3-(propan-2-yl)-1H-pyrazolo[3,4-b]pyridine-6-carboxylic acid] | 79.95% | 1670 nM | 307.5% | 1670 nM |  | 
CC(C)c1nn(-c2ccc(F)cc2)c2nc(C(=O)O)cc(N3CCN(CC4CCCO4)CC3)c12 (stereo not shown) [compound 792, 1-(4-fluorophenyl)-4-{4-[(oxolan-2-yl)methyl]piperazin-1-yl}-3-(propan-2-yl)-1H-pyrazolo[3,4-b]pyridine-6-carboxylic acid] | 170.1% | 1430 nM | 321% | 710 nM |  | 
COCC(C)N1CCN(c2cc(C(=O)O)nc3c2c(C(C)C)nn3-c2ccc(F)cc2)CC1 (stereo not shown) [compound 793, 1-(4-fluorophenyl)-4-[4-(1-methoxypropan-2-yl)piperazin-1-yl]-3-(propan-2-yl)-1H-pyrazolo[3,4-b]pyridine-6-carboxylic acid] | 157.7% | 1670 nM | 363.5% | 1670 nM |  | 
CC(C)c1nn(-c2ccc(F)cc2)c2nc(C(=O)O)cc(N3CC(N4CCCC4)C3)c12 [compound 794, 1-(4-fluorophenyl)-3-(propan-2-yl)-4-[3-(pyrrolidin-1-yl)azetidin-1-yl]-1H-pyrazolo[3,4-b]pyridine-6-carboxylic acid] | 58.82% | 1670 nM | 168.7% | 788 nM |  | 
CC(C)c1nn(-c2ccc(F)cc2)c2nc(C(=O)O)cc(N3CCCN(C(C)C)CC3)c12 [compound 795, 1-(4-fluorophenyl)-3-(propan-2-yl)-4-[4-(propan-2-yl)-1,4-diazepan-1-yl]-1H-pyrazolo[3,4-b]pyridine-6-carboxylic acid] | 47.22% | 1670 nM | 175.3% | 1670 nM |  | 
CC(C)CN1C[C@@H]2CN(c3cc(C(=O)O)nc4c3c(C(C)C)nn4-c3ccc(F)cc3)C[C@@H]2C1 [compound 796, 1-(4-fluorophenyl)-4-[(3aR,6aS)-5-(2-methylpropyl)hexahydropyrrolo[3,4-c]pyrrol-2(1H)-yl]-3-(propan-2-yl)-1H-pyrazolo[3,4-b]pyridine-6-carboxylic acid] | 169.7% | 1670 nM | 358% | 1670 nM |  | 
CCN1CCCN(c2cc(C(=O)O)nc3c2c(C(C)C)nn3-c2ccc(F)cc2)CC1 [compound 797, 4-(4-ethyl-1,4-diazepan-1-yl)-1-(4-fluorophenyl)-3-(propan-2-yl)-1H-pyrazolo[3,4-b]pyridine-6-carboxylic acid] | 31.52% | 5000 nM | 178.6% | 1670 nM |  | 
CC(C)c1nn(-c2ccc(F)cc2)c2nc(C(=O)O)cc(N3CCC(O)(CN(C)C(C)C)CC3)c12 [compound 798, 1-(4-fluorophenyl)-4-(4-hydroxy-4-{[methyl(propan-2-yl)amino]methyl}piperidin-1-yl)-3-(propan-2-yl)-1H-pyrazolo[3,4-b]pyridine-6-carboxylic acid] | 58.3% | 1670 nM | 186.5% | 864 nM |  | 
CC(C)c1nn(-c2ccc(F)cc2)c2nc(C(=O)O)cc(N3CCC(N(C)C(C)C)CC3)c12 [compound 799, 1-(4-fluorophenyl)-4-{4-[methyl(propan-2-yl)amino]piperidin-1-yl}-3-(propan-2-yl)-1H-pyrazolo[3,4-b]pyridine-6-carboxylic acid] | 114% | 1670 nM | 306.6% | 1670 nM |  | 
CCN(CC)CCN1CCN(c2cc(C(=O)O)nc3c2c(C(C)C)nn3-c2ccc(F)cc2)CC1 [compound 800, 4-[4-[2-(diethylamino)ethyl]piperazin-1-yl}-1-(4-fluorophenyl)-3-(propan-2-yl)-1H-pyrazolo[3,4-b]pyridine-6-carboxylic acid] | 45.22% | 1670 nM | 214.8% | 1490 nM |  | 
CC(C)c1nn(-c2ccc(F)cc2)c2nc(C(=O)O)cc(N3CCN(C4CCN(C)CC4)CC3)c12 [compound 801, 1-(4-fluorophenyl)-4-[4-(1-methylpiperidin-4-yl)piperazin-1-yl]-3-(propan-2-yl)-1H-pyrazolo[3,4-b]pyridine-6-carboxylic acid] | 67.99% | 1670 nM | 253.1% | 1670 nM |  | 
COC[C@@H]1CCN(CC2CCN(c3cc(C(=O)O)nc4c3c(C3CCC3)nn4-c3ccccc3)CC2)C1 [compound 802, 3-cyclobutyl-4-(4-{[(3R)-3-(methoxymethyl)pyrrolidin-1-yl]methyl}piperidin-1-yl)-1-phenyl-1H-pyrazolo[3,4-b]pyridine-6-carboxylic acid] | 218% | 462 nM | 439.7% | 771 nM |  | 
CC(C1CCN(c2cc(C(=O)O)nc3c2c(C2CCC2)nn3-c2ccc(F)cc2)CC1)N1CCOCC1 (stereo not shown) [compound 805, 3-cyclobutyl-1-(4-fluorophenyl)-4-{4-[1-(morpholin-4-yl)ethyl]piperidin-1-yl}-1H-pyrazolo[3,4-b]pyridine-6-carboxylic acid] | 364% | 72.7 nM | 671% | 47.4 nM |  | 
CC(C)c1nn(-c2ccc(F)cc2)c2nc(C(=O)O)cc(N3CCC(CN4CCCC4)CC3)c12 [compound 811, 1-(4-fluorophenyl)-3-(propan-2-yl)-4-{4-[(pyrrolidin-1-yl)methyl]piperidin-1-yl}-1H-pyrazolo[3,4-b]pyridine-6-carboxylic acid] | 120.4% |  | 408.4% |  | 890 nM | 1080 nM
COCC1CCN(c2cc(C(=O)O)nc3c2c(C2CCC2)nn3-c2ccnc(C3CCOCC3)c2)CC1 [compound 817, 3-cyclobutyl-4-[4-(methoxymethyl)piperidin-1-yl]-1-[2-(oxan-4-yl)pyridin-4-yl]-1H-pyrazolo[3,4-b]pyridine-6-carboxylic acid] | 168% | 152 nM | 384.9% | 46.4 nM |  | 
O=C(O)c1cc(N2CCC(N3CCOCC3)CC2)c2c(C3CCC3)nn(-c3ccnc(C4CCOCC4)c3)c2n1 [compound 819, 3-cyclobutyl-4-[4-(morpholin-4-yl)piperidin-1-yl]-1-[2-(oxan-4-yl)pyridin-4-yl]-1H-pyrazolo[3,4-b]pyridine-6-carboxylic acid] | 174.7% | 3330 nM | 313.1% | 3330 nM |  | 
Cc1cccc(-n2nc(C3CCC3)c3c(N4CCC(N5CCOCC5)CC4)cc(C(=O)O)nc32)c1 [compound 820, 3-cyclobutyl-1-(3-methylphenyl)-4-[4-(morpholin-4-yl)piperidin-1-yl]-1H-pyrazolo[3,4-b]pyridine-6-carboxylic acid] | 351.3% | 285 nM | 499.75% | 123 nM |  | 
COc1cccc(-n2nc(C3CCC3)c3c(N4CCC(N5CCOCC5)CC4)cc(C(=O)O)nc32)c1 [compound 822, 3-cyclobutyl-1-(3-methoxyphenyl)-4-[4-(morpholin-4-yl)piperidin-1-yl]-1H-pyrazolo[3,4-b]pyridine-6-carboxylic acid] | 272.3% | 301 nM | 472.75% | 1140 nM |  | 
